Experimental findings from patent US20240425491A1, “HETEROARYL COMPOUNDS USEFUL IN THE TREATMENT OF COGNITIVE DISORDERS” (University College Cardiff Consultants Limited, priority 2021, published 2024) are described below.

Assay [1] concerns the target T1, human recombinant GABAAR containing α5β3γ2 subunits (benzodiazepine site) (Homo sapiens, UniProt P18507+P31644).
T1 construct: expressed in transfected cells; host or cells: mouse L(tk−) cells, dexamethasone-inducible vector pMSGneo
Nature of the assay: In vitro radioligand binding assay (α5-GABAAR Ki). Conditions: inhibition of [3H]Ro15-1788 binding, membranes of L(tk−) cells expressing human α5β3γ2; read-out: α5-GABAAR Ki. The procedure, abridged: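 Membranes from mouse L(tk^−) cells stably expressing human α5β3γ2 GABAAR incubated 1 h at 4° C with 4 nM [^3H]Ro15-1788 and test compound; nonspecific binding with 1 μM TP003. Filter-bound radioactivity counted; Ki from IC50 by Cheng-Prusoff using measured Kd.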

Assay [2] has as its target T2, human α5β3γ2 GABAARs in mouse L(tk−) cells (Homo sapiens, UniProt P18507+P31644).
T2 construct: expressed in transfected cells; host or cells: mouse L(tk−) cells, dexamethasone-inducible vector pMSGneo
Nature of the assay: In vitro electrophysiological recording assay (α5-GABAAR relative efficacy), QPatch. It is filed as cell-based. Conditions: GABA EC10-20. From the text: Mouse L(tk^−) cells stably expressing human α1β3γ2, α2β3γ2, α3β3γ2, α5β3γ2 GABAARs generated by transfection of the individual subunits in the dexamethasone-inducible expression vector pMSGneo in mouse L(tk^−) cells (Hadingham et al., 1993, Mol. Pharmacol. 43:970-975 and 1993, Mol. Pharmacol. 44:1211-1218) were used for binding and functional assays. For certain compounds, HEK293 cells stable expressing the human α1β3γ2L, α2β3γ2L, α3β3γ2L and α5β3γ2L GABAA receptors were used to evaluate their functional effects in a SyncroPatch electrophysiology assay.
For QPatch electrophysiology testing, 1 μM dexamethasone was added to the culture medium of L(tk^−) cells 24 hours before the recordings were performed. Cells were typically used for electrophysiology experiments 72-96 hours after splitting.
The efficacy of modulators was evaluated using either the automated patch-clamp platform QPatch16 (Sophion, Copenhagen, Denmark) or the SyncroPatch 384i (Nanion Technologies, Germany). Cells were harvested from flasks by enzymatic dissociation and re-suspended in serum-free medium.
For QPatch recordings, all experiments were carried out at room temperature (20-22° C.) using a standard whole cell procedure and physiological solutions. Gigaseals were formed upon execution of a combined suction/voltage protocol with subsequent increased suction leading to the whole-cell configuration. The currents recorded were acquired at 1 KHz and filtered at 0.3 KHz using a Bessel filter. Whole-cell currents were measured at a holding potential of −65 mV.
For QPatch recordings, the extracellular solution contained of (in mM): 145 NaCl, 4 KCl, 1 MgCl2, 2CaCl2, 10 HEPES, 10 D-glucose (pH 7.4), and the intracellular solution consisted of (in mM): 96 KCl, 28 CsCl, 25 KOH, 4.3 CaCl2), 1.4 MgCl2, 10 EGTA, HEPES, 3 MgATP (pH 7.2). The osmolarities of the extracellular and intracellular solutions were 305 and 295 mOsm respectively.
The effects of modulators were evaluated in the presence of a submaximal GABA concentration, giving typically 10-20% activation (GABA EC10-20) of the response elicited by a saturating GABA concentration. For QPatch recordings, to check and ensure baseline current stability before compound addition, five consecutive applications of GABA EC10-20 alone (each application with a 2 s duration, separated by minimum 1 min wash off periods) were performed before compound addition. The test compound was applied using the pipetting system of the QPatch system 1 min at least prior to co-application with GABA EC10-20. For SyncroPatch recordings, GABA EC20 alone was applied three times (1 s long applications, with wash steps in-between) before compound addition. This was followed by a 1-2 min pre-incubation with the test compound and then re-application of GABA EC10-20 in the presence of the compound. Finally, following a further wash step, a saturating concentration of GABA was applied, allowing the accurate evaluation for each cell of the percentage baseline activation elicited by the submaximal GABA applied.
The compounds were first dissolved in DMSO as a 10 mM stock and then further diluted to the testing concentrations so that the final DMSO concentration in the extracellular recording solution was kept constant at 0.1% for the QPatch recordings, or 0.2% for the SyncroPatch recordings.
The % efficacy of modulators was determined from the GABA elicited currents recorded in the presence and absence of the test compound, using the formula:
[((compound peak current−leak)−(GABA peak current−leak))/(GABA peak current−leak)]*100,
where ‘leak’ is the leak baseline current at −65 mV, ‘compound peak current’ is the current elicited by co-application of compound and GABA, and ‘GABA peak current’ is the current elicited by GABA alone during the 5th GABA application. The results were presented as ‘relative efficacy’ for each compound generally at a concentration equal or higher than 100 times their determined Ki. […]
(Patch clamp records ionic current or voltage across a cell membrane.)

As usually defined, the Ki is the dissociation constant of the complex between target and ligand, obtained from inhibition or displacement.

T1 sequence (P31644 32-462): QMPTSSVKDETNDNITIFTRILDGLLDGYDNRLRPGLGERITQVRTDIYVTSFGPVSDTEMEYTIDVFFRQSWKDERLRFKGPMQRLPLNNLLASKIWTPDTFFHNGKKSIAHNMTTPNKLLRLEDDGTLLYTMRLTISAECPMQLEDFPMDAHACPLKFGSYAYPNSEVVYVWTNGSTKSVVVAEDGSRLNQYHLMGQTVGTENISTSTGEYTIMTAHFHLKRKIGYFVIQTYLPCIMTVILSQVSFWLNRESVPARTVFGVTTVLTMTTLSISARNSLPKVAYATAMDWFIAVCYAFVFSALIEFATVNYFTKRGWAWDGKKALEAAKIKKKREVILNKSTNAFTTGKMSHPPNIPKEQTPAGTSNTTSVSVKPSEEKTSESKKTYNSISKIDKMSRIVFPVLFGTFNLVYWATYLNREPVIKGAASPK
T1 sequence (P28472 26-473 partner): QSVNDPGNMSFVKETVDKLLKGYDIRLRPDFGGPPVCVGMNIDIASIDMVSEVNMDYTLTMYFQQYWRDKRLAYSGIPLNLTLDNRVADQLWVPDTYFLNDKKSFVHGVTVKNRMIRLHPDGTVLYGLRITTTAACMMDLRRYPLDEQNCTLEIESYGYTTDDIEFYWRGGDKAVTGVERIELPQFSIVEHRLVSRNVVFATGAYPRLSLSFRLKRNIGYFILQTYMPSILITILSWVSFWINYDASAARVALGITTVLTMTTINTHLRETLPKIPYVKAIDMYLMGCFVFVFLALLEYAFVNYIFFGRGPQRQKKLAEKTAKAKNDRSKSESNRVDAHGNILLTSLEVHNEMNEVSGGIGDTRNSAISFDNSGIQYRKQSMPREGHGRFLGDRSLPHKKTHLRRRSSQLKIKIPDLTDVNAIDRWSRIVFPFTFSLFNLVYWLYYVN
T1 sequence (P18507 40-475): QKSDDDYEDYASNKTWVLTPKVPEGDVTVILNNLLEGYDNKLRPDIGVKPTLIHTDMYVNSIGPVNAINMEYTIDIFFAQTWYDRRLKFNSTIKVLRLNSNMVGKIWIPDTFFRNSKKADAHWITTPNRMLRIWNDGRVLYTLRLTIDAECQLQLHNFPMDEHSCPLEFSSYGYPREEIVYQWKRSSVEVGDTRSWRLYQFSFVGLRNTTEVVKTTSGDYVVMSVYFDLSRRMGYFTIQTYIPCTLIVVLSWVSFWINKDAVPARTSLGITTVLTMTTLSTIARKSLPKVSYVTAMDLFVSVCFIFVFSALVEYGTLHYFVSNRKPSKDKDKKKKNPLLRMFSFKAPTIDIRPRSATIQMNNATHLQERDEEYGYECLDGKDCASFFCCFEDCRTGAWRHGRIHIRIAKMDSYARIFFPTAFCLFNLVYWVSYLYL
T2 sequence (P31644 32-462): as the sequence (P31644 32-462) above
T2 sequence (P28472 26-473 partner): as the sequence (P28472 26-473 partner) above
T2 sequence (P18507 40-475): as the sequence (P18507 40-475) above

For `COc1nc(-c2c(C)noc2C)ccc1NC(=O)c1c(-c2ccccc2)noc1C` [Example 6, N-[6-(3,5-Dimethylisoxazol-4-yl)-2-methoxy-3-pyridyl]-5-methyl-3-phenyl-isoxazole-4-carboxamide], the Ki in assay [1] came out at 33.1 nM. For the same compound, the “α5-GABAAR Relative Efficacy (to DMCM), Qpatch” value (from here on “α5-GABAAR Relative Efficacy”) in assay [2] (Conc 10 μM) is given as −0.22.
With `COc1nc(-c2cncnc2)ccc1NC(=O)c1c(-c2ccccc2)noc1C` [Example 7, N-(2-Methoxy-6-pyrimidin-5-yl-3-pyridyl)-5-methyl-3-phenyl-isoxazole-4-carboxamide], in assay [1], the Ki was determined as 2 nM. For the same compound, in assay [2] (Conc 0.3 μM), the “α5-GABAAR Relative Efficacy” value is −0.77.
As to `COc1cc(-c2cncnc2)cnc1NC(=O)c1c(-c2ccccc2)noc1C` [Example 9, N-(3-Methoxy-5-pyrimidin-5-yl-2-pyridyl)-5-methyl-3-phenyl-isoxazole-4-carboxamide], in assay [1], the Ki worked out at 3.2 nM. In addition, in assay [2] (Conc 1 μM), the “α5-GABAAR Relative Efficacy” value is on record as −0.21.
With `COc1nc(-c2cncc(N)c2)ccc1NC(=O)c1c(-c2ccccc2)noc1C` [Example 11, N-[6-(5-Amino-3-pyridyl)-2-methoxy-3-pyridyl]-5-methyl-3-phenyl-isoxazole-4-carboxamide], the Ki in assay [1] came to 2.9 nM. Moreover, in assay [2] (Conc 0.3 μM), the “α5-GABAAR Relative Efficacy” value was −0.84.
With `COc1cc(-c2cnn(C)c2)ccc1NC(=O)c1c(-c2ccccc2)noc1C` [Example 12, N-[2-Methoxy-4-(1-methylpyrazol-4-yl)phenyl]-5-methyl-3-phenyl-isoxazole-4-carboxamide], the Ki in assay [1] came out at 17.1 nM. Further, the “α5-GABAAR Relative Efficacy” value in assay [2] (Conc 3 μM) was −0.68.
`COc1cc(-c2cncnc2)ccc1NC(=O)c1c(-c2ccccc2)noc1C` [Example 13, N-(2-Methoxy-4-pyrimidin-5-yl-phenyl)-5-methyl-3-phenyl-isoxazole-4-carboxamide]: in assay [1], the Ki was 3.6 nM. Also, the “α5-GABAAR Relative Efficacy” value in assay [2] (Conc 1 μM) is listed as −0.85.
Turning to `COc1cc(-c2c(C)noc2C)cnc1NC(=O)c1c(-c2ccccc2)noc1C` [Example 14, N-[5-(3,5-Dimethylisoxazol-4-yl)-3-methoxy-2-pyridyl]-5-methyl-3-phenyl-isoxazole-4-carboxamide], the inhibition constant Ki in assay [1] stood at 50 nM. Further, in assay [2] (Conc 10 μM), the “α5-GABAAR Relative Efficacy” value was −0.24.
`COc1cc(-c2cnn(C)c2)cnc1NC(=O)c1c(-c2ccccc2)noc1C` [Example 15, N-[3-Methoxy-5-(1-methylpyrazol-4-yl)-2-pyridyl]-5-methyl-3-phenyl-isoxazole-4-carboxamide]: in assay [1], the Ki amounted to 7 nM. Moreover, the “α5-GABAAR Relative Efficacy” value in assay [2] (Conc 1 μM) is reported as −0.19.
In the case of `COc1nc(-c2cnc(C3CC3)nc2)ccc1NC(=O)c1c(-c2ccccc2)noc1C` [Example 17, N-[6-(2-Cyclopropylpyrimidin-5-yl)-2-methoxy-3-pyridyl]-5-methyl-3-phenyl-isoxazole-4-carboxamide], the Ki in assay [1] stood at 10.8 nM. Further, the “α5-GABAAR Relative Efficacy” value in assay [2] (Conc 3 μM) is reported as −0.81.
Regarding `COc1cc(-c2cn[nH]c2)cnc1NC(=O)c1c(-c2ccccc2)noc1C` [Example 18, N-[3-Methoxy-5-(1H-pyrazol-4-yl)-2-pyridyl]-5-methyl-3-phenyl-isoxazole-4-carboxamide], the Ki in assay [1] turned out to be 2.8 nM. Besides, in assay [2] (Conc 0.3 μM), the “α5-GABAAR Relative Efficacy” value is −0.61.
As for `COc1nc(-c2cnn(C)c2)cnc1NC(=O)c1c(-c2ccccc2)noc1C` [Example 19, N-[3-Methoxy-5-(1-methylpyrazol-4-yl)pyrazin-2-yl]-5-methyl-3-phenyl-isoxazole-4-carboxamide], the Ki in assay [1] was 4.3 nM. Further, in assay [2] (Conc 1 μM), the “α5-GABAAR Relative Efficacy” value is recorded as −0.86.
For the compound `COc1nc(-c2cn(C)nc2C)ccc1NC(=O)c1c(-c2ccccc2)noc1C` [Example 20, N-[6-(1,3-Dimethylpyrazol-4-yl)-2-methoxy-3-pyridyl]-5-methyl-3-phenyl-isoxazole-4-carboxamide], the Ki in assay [1] was 13.9 nM. In addition, in assay [2] (Conc 3 μM), the “α5-GABAAR Relative Efficacy” value is on record as −0.28.
Take `COc1nc(-c2cnn(C(C)C)c2)ccc1NC(=O)c1c(-c2ccccc2)noc1C` [Example 21, N-[6-(1-Isopropylpyrazol-4-yl)-2-methoxy-3-pyridyl]-5-methyl-3-phenyl-isoxazole-4-carboxamide]: the Ki in assay [1] worked out at 20.5 nM. Besides, the “α5-GABAAR Relative Efficacy” value in assay [2] (Conc 3 μM) is given as −0.48.
With `COc1nc(-c2c(C)nn(C)c2C)ccc1NC(=O)c1c(-c2ccccc2)noc1C` [Example 22, N-[2-Methoxy-6-(1,3,5-trimethylpyrazol-4-yl)-3-pyridyl]-5-methyl-3-phenyl-isoxazole-4-carboxamide], the Ki in assay [1] is 15.8 nM. For the same compound, the “α5-GABAAR Relative Efficacy” value in assay [2] (Conc 3 μM) is on record as 0.15.
With `COc1nc(-c2ccnn2C)ccc1NC(=O)c1c(-c2ccccc2)noc1C` [Example 23, N-[2-Methoxy-6-(2-methylpyrazol-3-yl)-3-pyridyl]-5-methyl-3-phenyl-isoxazole-4-carboxamide], the Ki in assay [1] was 2.4 nM. Further, the “α5-GABAAR Relative Efficacy” value in assay [2] (Conc 0.3 μM) was −0.46.
Take `COc1nc(-c2cn[nH]c2)ccc1NC(=O)c1c(-c2ccccc2)noc1C` [Example 26, N-[2-Methoxy-6-(1H-pyrazol-4-yl)-3-pyridyl]-5-methyl-3-phenyl-isoxazole-4-carboxamide]: the inhibition constant (Ki) in assay [1] worked out at 8 nM. Moreover, in assay [2] (Conc 1 μM), the “α5-GABAAR Relative Efficacy” value is listed as −0.68.
On to `COc1nc(-c2ccc(CO)nc2)ccc1NC(=O)c1c(-c2ccccc2)noc1C` [Example 27, N-[6-[6-(Hydroxymethyl)-3-pyridyl]-2-methoxy-3-pyridyl]-5-methyl-3-phenyl-isoxazole-4-carboxamide], for which the Ki in assay [1] was found to be 2.3 nM. Moreover, the “α5-GABAAR Relative Efficacy” value in assay [2] (Conc 0.3 μM) is recorded as −0.83.
`COc1nc(-c2ccc(=O)n(C)c2)ccc1NC(=O)c1c(-c2ccccc2)noc1C` [Example 28, N-[2-Methoxy-6-(1-methyl-6-oxo-3-pyridyl)-3-pyridyl]-5-methyl-3-phenyl-isoxazole-4-carboxamide]: in assay [1], the Ki is 5.2 nM. The “α5-GABAAR Relative Efficacy” value in assay [2] (Conc 1 μM) is recorded as −0.61.
Regarding `COc1cc(-c2cccc3nccn23)cnc1NC(=O)c1c(-c2ccccc2)noc1C` [Example 29, N-(5-Imidazo[1,2-a]pyridin-5-yl-3-methoxy-2-pyridyl)-5-methyl-3-phenyl-isoxazole-4-carboxamide], in assay [1], the Ki turned out to be 1.5 nM. Besides, the “α5-GABAAR Relative Efficacy” value in assay [2] (Conc 0.3 μM) is recorded as −0.53.
In the case of `COc1nc(-c2cccc3nccn23)ccc1NC(=O)c1c(-c2ccccc2)noc1C` [Example 30, N-(6-Imidazo[1,2-a]pyridin-5-yl-2-methoxy-3-pyridyl)-5-methyl-3-phenyl-isoxazole-4-carboxamide], in assay [1], the Ki was determined as 5.1 nM. The “α5-GABAAR Relative Efficacy” value in assay [2] (Conc 1 μM) is on record as −0.42.
With `COc1nc(-c2ccc3[nH]nc(N)c3c2)ccc1NC(=O)c1c(-c2ccccc2)noc1C` [Example 33, N-[6-(3-Amino-1H-indazol-5-yl)-2-methoxy-3-pyridyl]-5-methyl-3-phenyl-isoxazole-4-carboxamide], in assay [1], the Ki worked out at 15.8 nM. Further, in assay [2] (Conc 3 μM), the “α5-GABAAR Relative Efficacy” value is on record as −0.50.
